For 1 compound, IC50 results are on record in US20090274655A1, “2-CARBOXY THIOPHENE DERIVATIVES AS ANTI VIRAL AGENTS” (priority 2006, published 2009).

The subject of test [1] is sub-genomic HCV NS3-NS5B replicon of genotype 1a (subline 1.19) in Huh-7 cells. The experiment in a line: 1a luciferase replicon assay (replicon luciferase cell based assay). Details: species or system HCV genotype 1a. As to conditions: Hepatitis C virus, genotype 1a replicon, firefly luciferase reporter, 48 hours. The protocol: (§1) Replicon Luciferase Cell Based Assay
(§2) A 40 mM stock solution in DMSO of each test compound was further diluted into 50 μL of DMSO in the first row of a 96 well, V-bottom microplate, to give 100 times the top concentration of the required dilution series. Aliquots of 25 μL of DMSO were added to each well of the remaining rows, and doubling dilutions of compound were prepared by the serial transfer of 25 μL volumes from the first row onwards. A PlateMate™ robot was used to transfer 1 μL volumes from each dilution well into duplicate wells of a clear bottom, black walled, 96 well assay plate (COSTAR #3603). Control wells received 1 μL of DMSO alone. […]
(§3) One tablet of Resazurin (Fisher #R/0040/79) was dissolved in 50 mL of phosphate buffered saline and 100 μL of solution added to all wells. The plate was re-incubated at 37° C. for a further 2-4 hours, wrapped in aluminium foil, before reading in a FLUOStar Optima at 595 nm. […] The plate was then read for luminescence on a TopCount® NXT™.
(§4) Potency: The luminescence values from all compound-free wells containing cells were averaged to obtain a positive control value. The mean luminescence value from the compound-free wells that had received no cells was used to provide the negative (background) control value. […] The quantifiable and specific reduction of luciferase signal in the presence of a drug is a direct measure of replicon inhibition. […]
A general note: A replicon is a self-replicating genome or part of one, used to study replication in cells.

Test [2] deals with sub-genomic HCV NS3-NS5B replicon of genotype 1b (ET subline) in Huh-7 cells. The experiment in a line: 1b luciferase replicon assay (replicon luciferase cell based assay). As to conditions: Hepatitis C virus, Huh-7, 48 h, read-out: IC50 in the 1b luciferase replicon assay. Details: species or system HCV genotype 1b. The protocol: as §1, §2, §3, §4

As for `CC(C)N(c1cc(-c2ccc(NC(=O)c3cscn3)cc2)sc1C(=O)O)C(=O)[C@H]1CC[C@H](C)CC1` [Example 1, 3-[[(trans-4-Methylcyclohexyl)carbonyl](1-methylethyl)amino]-5-{4-[(1,3-thiazol-4-ylcarbonyl)amino]phenyl}-2-thiophenecarboxylic acid], the IC50 in test [1] and in test [2] was less than 100 nM in each case.

The term IC50 denotes the concentration at which inhibition is half-maximal.
